B1: Glychr19.trna2: top performing glycine ACE-tRNA UGA suppressor, SEQ ID NO: 53 (nucleic acid)
chain: GCGTTGGTGGTATAGTGGTTAGCATAGCTGCCTTCAAAGCAGTTGACCCGGGTTCGATTCCCGGCCAACGCA
modifications: chemistry not fully specified

System: native stop codons (TAA, TAG, TGA) of HEK293 transcripts
Assay: Ribosome footprint profiling of transcriptome-wide 3′UTRs
Type: cell-based, human
Conditions: for ribosome occupancy at each nucleotide in the 3′UTR downstream of stop codons: HEK293, log 2-fold change versus control; for readthrough of native stop codons / global translation termination: HEK293, summary in discussion
Excerpt: The question was raised whether ACE-tRNAs that show efficacious suppression of premature stop codons may also induce global readthrough of native stop codons. To address this potential “off target” suppression, a transcriptome-wide quantitative profile of actively engaged ribosomes on all cellular transcripts was obtained by generating libraries of ribosome footprints from HEK293 cells expressing exogenous ACE-tRNAs or a control mock plasmid (puc57GG). Streptomycin was removed from the growth media to prevent readthrough artifacts. For comparison, the ribosome footprint library was also generated from cells in the presence or absence of G418 (150 μM, 48 hours). […] Only transcripts with a minimum threshold of 5 RPKM in the coding sequence and 0.5 RPKM in the 3′UTR in two replicate libraries were included for the quantitation comparison (254 transcripts in G418 and 495-748 transcripts in ACE-tRNAs). […] ACE-tRNAs examined here had no detectable change of 3′UTR ribosome density with the exception of ACE-tRNA Gln-UAA and Arg-UGA which induced approximately a 2-fold increase in 3′UTR ribosome density for the cognate stop codon complimentary to the ACE-tRNA anticodon. Understanding the biological significance of 2-fold readthrough of protein stops will require further study, but this effect is substantially lower compared to the 100- to 1000-fold suppression of PTC for the same ACE-tRNA.
Multiple in-frame stop codons are frequently found at the end of genes^37-39 and may cause a minor difference in overall 3′UTR ribosome density for ACE-tRNA and G418 treatment. Ribosome occupancy was examined at each nucleotide in the 3′UTR within a 60 nt region downstream of the stop codons. […] Reads were normalized per total million-mapped reads, compared against control cells, and reported as a log 2-fold change as in panel A. More than 5,200 transcripts were mapped to at least 1 footprint in the region of interest. […] Taken together, the ribosome profiling data argue that efficiency of native stop codon suppression by ACE-tRNAs is generally low, and markedly less than the level of PTC suppression.
Ribosome Footprint Profiling Library preparation. HEK293 cells transiently transfected with ACE-tRNAs and control plasmid (puc57GG) were grown in standard grown media in the absence of Pen-Strep for 48 h. Libraries were prepared as described^55, with a few modifications. Briefly, cells were rapidly cooled by addition of ice-cold PBS, lysed in lysis buffer (20 mM Tris-HCl/pH7.4, 150 mM NaCl, 5 mM MgCl2, 1 mM DTT, 1% (v/v) Triton X-100, and 25 U ml^−1 Turbo DNase I) for 10 min on ice, and triturated with ten times through a 26-G needle. After clearance by centrifugation at 16,000 g for 10 min at 4° C., the lysates were digested with 100 U RNase I (Ambion, USA) per A260 lysate at room temperature for 45 min with gentle agitation prior to adding 200 U RiboLock RNase Inhibitor (Thermo Scientific). Ribosome protected mRNA fragments were then isolated by loading lysates onto a 1M sucrose cushion prepared in modified polysome buffer (20 mM Tris-HCl/pH7.4, 150 mM NaCl, 8.5 mM MgCl2, 0.5 mM DTT, 20 U ml^−1 RiboLock RNase Inhibitor) and centrifugated at 70,000 rpm at 4° C. for 2 h using a Beckmen TLA-110 rotor. Ribosome pellets containing mRNA footprints were extracted using TRIzol and separated on a denaturing 12% polyacrylamide gel containing 8M urea. RNA fragments with sizes ranging from 26 to 34 nt were manually excised from the gel stained with SYBR Gold (Invitrogen) and isolated to generate the ribosome-protected fragment library. Contaminating rRNA fragments depleted using a Ribo-Zero kit (Illumina). 3′ Oligonucleotide adaptor ligation, reverse transcription, circularization, and secondary rRNA depletion using biotinylated rRNA depletion oligos (Table 9) were performed as described^55. Libraries were barcoded using indexing primers for each sample during PCR amplification. […]

| Molecule | ribosome occupancy at each nucleotide in the 3′UTR downstream of stop codons | readthrough of native stop codons / global translation termination |
| --- | --- | --- |
| Trpchr17.trna39: top performing tryptophan ACE-tRNA UGA suppressor, SEQ ID NO: 48 | no observable change of ribosome occupancy | no significant effect on global translation termination |
| B1 | no observable change of ribosome occupancy | no significant effect on global translation termination |

Source: US20230203482A1, “Methods of Rescuing Stop Codons via Genetic Reassignment with ACE-tRNA” (THE WISTAR INSTITUTE OF ANATOMY AND BIOLOGY, priority 2017, published 2023)
